Assay results as given in patent US3984410A, “Isourea acetylphosphate insecticides” (priority 1975, dated 1976).
≈ marks a conversion by molar mass, not a printed value.

Experiments:
Format in all cases: in vivo
[1] = tested on: housefly (Musca domestica L.); test: Housefly mortality, residue on aluminum dishes; conditions: 25 3-day old female houseflies; mortality after 48 hours
Procedure: Test compounds are diluted in acetone and aliquots are pipetted onto the bottom of 55 × 15 mm aluminum dishes. To insure even spreading of the chemical on the bottom of the dishes, 1 ml of acetone containing 0.02% peanut oil is also added to each dish. After all solvents have evaporated the dishes are placed in circular cardboard cages containing 25 3-day old female houseflies. The cages are covered on the bottom with cellophane and the top with tulle netting, and each contains a sugar-water saturated cotton plug for maintenance of the flies. Mortality is recorded after 48 hours. Test levels range from 100 μg/25 F. houseflies down to that at which approximately 50% mortality occurs.

[2] = tested on: Green Peach Aphid [Myzus persicae (Sulzer)]; test: Green Peach Aphid spray on radish plants; conditions: sprayed to runoff on radish plants; mortality after 48 hours
Procedure: Radish plants (Rhaphanus sativus), approximately 2 cm tall, are transplanted into sandy loam soil in 3-inch clay pots and infested with 25-50 green peach aphids of mixed ages. Twenty-four hours later they are sprayed, to the point of runoff, with 50--50 acetone-water solutions of the test chemicals. Treated plants are held in the greenhouse and mortality is recorded after 48 hours. Test concentrations range from 0.05% down to that at which 50% mortality occurs.

[3] = tested on: Black Bean Aphid [Aphis fabae (Scop.)]; test: Direct Spray Assay on Black Bean Aphid; conditions: direct spray on nasturtium plants; mortality after 7 days
Procedure: Nasturtium plants (Tropaeolum sp.), approximately 5 cm tall, are transplanted into sandy loam soil in 3-inch clay pots and infested with 25-50 black bean aphids of mixed ages. Twenty-four hours later they are sprayed, to the point of runoff, with 50--50 acetone-water solutions of the test chemicals. Treated plants are held in the greenhouse and mortality is recorded after 7 days. Test concentrations range from 0.05% down to that at which 50% mortality occurs.

[4] = tested on: Black Bean Aphid [Aphis fabae (Scop.)]; test: Systemic Assay on Black Bean Aphid; conditions: 168 h, systemic, chemical in soil, mortality after 7 days, read-out: Insecticide Activity - Approximate LD50, BAS (Black Bean Aphid - systemic)
Procedure: Test chemicals are diluted in acetone and aliquots are thoroughly mixed into 500 grams of dry, sandy loam soil. The treated soil is placed in a pint ice cream carton and a nasturtium plant (Tropaeolum sp.) approximately 5 cm tall is transplanted into each carton. The plants are then infested with approximately 25 black bean aphids of mixed ages and placed in the greenhouse. Seven days later mortality is recorded. Test concentrations range from 10 PPM down to that at which approximately 50% mortality occurs.

[5] = tested on: Lygus Bug [Lygus hesperus (Knight)]; test: Lygus Bug spray; conditions: spray on adult bugs; mortality after 48 hours
Procedure: Test compounds are in a 50--50 acetone-water solution. Two cc of the solutions are sprayed through a Devilbiss type EGA hand spray gun into circular cardboard cages containing one string bean pod and ten adult lygus bugs. The test cages are covered on the bottom with cellophane and the top with tulle netting. Percent mortality is recorded 48 hours later. Test concentrations range from 0.05% down to that at which approximately 50% mortality occurs.

[6] = tested on: German Cockroach [Blattella germanica (Linne)]; test: German Cockroach spray; conditions: spray on 1-month-old nymphs; mortality after 7 days
Procedure: Test compounds are diluted in a 50--50 acetone-water solution. Two cc of the solutions are sprayed through a DeVilbiss type EGA hand spray gun into circular cardboard cages containing 10 l-month-old German cockroach nymphs. The test cages are covered on the bottom with cellophane and the top with tulle netting. Percent mortality is recorded 7 days later. Test concentrations range from 0.1% down to that at which approximately 50% mortality occurs.

[7] = tested on: Cabbage Looper [Trichoplusia ni (Hubner)]; test: Cabbage Looper on dipped squash cotyledons; conditions: second-instar larvae, cotyledon dip; 48 hours plus 5 days
Procedure: (§1) Test compounds are diluted in a 50--50 acetone-water solution. Cotyledons of hyzini squash (Calabacita abobrinha), approximately 1 × 1.5 inches, are immersed in the test solutions for 2-3 seconds and placed on a wire screen to dry. The dried leaves are placed in petri dishes containing a moistened piece of filter paper and infested with five second-instar cabbage looper larvae. Mortality of the larvae is recorded 48 hours later, and a piece of synthetic media is added to dishes containing survivors. These are then held for 5 additional days to observe for any delayed effects of the test chemicals. Test concentrations range from 0.1% down to that at which approximately 50% mortality occurs.

[8] = tested on: Tobacco Budworm [Heliothis virescens (F.)]; test: Tobacco Budworm on dipped Romaine lettuce leaves; conditions: larvae, Romaine lettuce leaf dip; 48 hours plus 5 days
Procedure: as §1
The procedure is the same as that used for the cabbage looper, except that sections of Romaine lettuce (Latica sativa) leaves were used instead of cotyledons of hyzini squash.

[9] = tested on: Southern House Mosquito [Culex pipiens quinquefasciatus (Say)]; test: Southern House Mosquito larvae in aqueous solution; conditions: 48 h, read-out: Insecticide Activity - Approximate LD50, MOS (Southern House Mosquito)
Procedure: Insecticidal activity is determined using third-instar larvae of the mosquito (Culex pipiens quinquefasciatus). Ten larvae are placed in a 6-ounce, number 67 Dixie wax paper cup containing 100 ml of an aqueous solution of the test chemical. The treated larvae are stored at 70°F, and 48 hours later the mortality is recorded. Test concentrations range from 0.5 PPM down to that at which approximately 50% mortality occurs.

| SMILES | Insecticide Activity - Approximate LD50, HF (Housefly) [1] [μg/25 F.] | Insecticide Activity - Approximate LD50, GPA (Green Peach Aphid) [2] | Insecticide Activity - Approximate LD50, BA (Black Bean Aphid - direct spray) [3] | LC50 [4] [µg/mL] | Insecticide Activity - Approximate LD50, LB (Lygus Bug) [5] | Insecticide Activity - Approximate LD50, GR (German Cockroach) [6] | Insecticide Activity - Approximate LD50, CL (Cabbage Looper) [7] | Insecticide Activity - Approximate LD50, TBW (Tobacco Budworm) [8] | LC50 [9] [µg/mL] |
| --- | --- | --- | --- | --- | --- | --- | --- | --- | --- |
| CCOP(=S)(OCC)SCC(=O)N=C(OC)N(CC)c1ccccc1 [Compound 15] | 30 | .03% | .005% | 2 (≈ 4.94 µM) | > .05% | > .1% | .1% | > .1% | > 1 |
| CCOP(=S)(OCC)SCC(=O)N=C(OC)N(CC)c1cccc(C)c1 [Compound 18] | 22 | .005% | .0005% | 5 (≈ 11.9 µM) | > .05% | .1% | > .1% | .1% | > 1 |
| CCN(C(=NC(=O)CSP(=S)(OC)OC)OC)c1cccc(C)c1 [Compound 19] | 62 | .03% | .002% | > 10 | > .05% | > .1% | > .1% | > .1% | > 1 |
